Experiments:
Assay in all cases: relative viability (nuclei count vs DMSO), 5 days (fraction); higher = more cells survive
[1] = compound: CCn1c(-c2nonc2N)nc2cnc(Oc3cccc(NC(=O)c4ccc(OCCN5CCOCC5)cc4)c3)cc21 + Cc1cc(Nc2cc(N3CCN(C)CC3)nc(Sc3ccc(NC(=O)C4CC4)cc3)n2)n[nH]1 [Tozasertib] (partner 0.1 µM)
Outline: (§1)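 Relative viability is defined as nuclei in treated wells over nuclei in vehicle wells. Duplicate plates were run and medians reported. Lung cancer cell lines in 1536-well plates were dosed by pin tool one day after seeding, with one drug or with a fixed anchor-drug dose plus five library-drug doses (not always all listed) in √10 steps, and nuclei were counted after 5 days.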

[2] = compound: CCn1c(-c2nonc2N)nc2cnc(Oc3cccc(NC(=O)c4ccc(OCCN5CCOCC5)cc4)c3)cc21 + Cc1nc(Nc2ncc(C(=O)Nc3c(C)cccc3Cl)s2)cc(N2CCN(CCO)CC2)n1 [Dasatinib] (partner 0.075 µM)
Outline: as §1

[3] = compound: CCn1c(-c2nonc2N)nc2cnc(Oc3cccc(NC(=O)c4ccc(OCCN5CCOCC5)cc4)c3)cc21 + CCNC(=O)c1noc(-c2cc(C(C)C)c(O)cc2O)c1-c1ccc(CN2CCOCC2)cc1 [Luminespib] (partner 0.01 µM)
Outline: as §1

Mirin + Vorinostat = compound: N=C1NC(=O)/C(=C/c2ccc(O)cc2)S1 [Mirin] + O=C(CCCCCCC(=O)Nc1ccccc1)NO [Vorinostat] (partner 1 µM)
Outline: as §1

## UMC-11
[1]; first compound 0.04 µM
  relative viability: 0.206
[1]; first compound 0.1265 µM
  relative viability: 0.212
[1]; first compound 0.4 µM
  relative viability: 0.205
[1]; first compound 1.265 µM
  relative viability: 0.16
[1]; first compound 4 µM
  relative viability: 0.186
[2]; first compound 0.04 µM
  relative viability: 0.37
[2]; first compound 0.1265 µM
  relative viability: 0.415
[2]; first compound 0.4 µM
  relative viability: 0.337
[2]; first compound 1.265 µM
  relative viability: 0.214
[2]; first compound 4 µM
  relative viability: 0.182
[3]; first compound 0.04 µM
  relative viability: 1.03
[3]; first compound 0.1265 µM
  relative viability: 0.915
[3]; first compound 0.4 µM
  relative viability: 0.83
[3]; first compound 1.265 µM
  relative viability: 0.291
[3]; first compound 4 µM
  relative viability: 0.222
Mirin + Vorinostat; first compound 0.25 µM
  relative viability: 0.411
Mirin + Vorinostat; first compound 0.7906 µM
  relative viability: 0.362
Mirin + Vorinostat; first compound 2.5 µM
  relative viability: 0.399
Mirin + Vorinostat; first compound 7.906 µM
  relative viability: 0.305
Mirin + Vorinostat; first compound 25 µM
  relative viability: 0.266

Reference: the supplement of paper PMC10307832
